Test system: diabetic retinopathy in patients with type 2 diabetes
Test: FIELD study: laser treatment for diabetic retinopathy (tertiary outcome)
Format: in vivo, human
Conditions: follow-up more than 5 years
Source text: As fibrates are known to correct the typical dyslipidaemia of diabetes, their role in cardiovascular risk reduction in diabetes may be especially important. A study called Fenofibrate Intervention and Event Lowering in Diabetes (FIELD) has been carried out which study is a multicentre, double-blind, placebo-controlled trail evaluating the effects on coronary morbidity and mortality of long-term treatment with fenofibrate to elevate high-density lipoprotein (HDL) cholesterol levels and lower triglyceride (TG) levels in patients with type 2 diabetes and total blood cholesterol between 3 and 6.5 mmol/L (115 and 250 mg/dL) at study entry. In type 2 diabetes, rates of coronary heart disease (CDH) are 3 to 4 times higher than those of persons without diabetes at any given level of blood cholesterol, and at any given age. […] Further, people with type 2 diabetes have both higher in hospital mortality after myocardial infarction (MI) and a poorer outcome in the subsequent years, losing on average between 5 and 10 years of life expectancy.
The study was is randomized, double-blind, placebo-controlled parallel-group trial among middle-aged to elderly people with type 2 diabetes mellitus considered to be at increased risk of CHD. Those with and without pre-existing vascular disease or other lipid abnormalities, such as low HDL cholesterol and elevated TG, were eligible, provided the total blood cholesterol level at screening fell between 3.0 and 6.5 mmol/L (about 115-250 mg/dL) plus either a total-to-HDL cholesterol ratio of >4.0 or a blood TG level >1.0 mmol/L (88.6 mg/dL). The study has been conducted in 63 clinical centres in Australia (39), Finland (9) and New Zealand (15).
The underlying principle guiding recruitment of patients into the study was that of clinical uncertainty: that is, patients were only to be considered if the patients' treating physicians were substantially uncertain about the value of lipid-modifying therapy for that particular individual and felt that there was no indication for lipid-modifying therapy. […]

CC(C)OC(=O)C(C)(C)Oc1ccc(C(=O)c2ccc(Cl)cc2)cc1 [Fenofibrate, 1-methylethyl ester (isopropyl ester) of fenofibric acid]
Patients with laser treatment for diabetic retinopathy (one or more laser treatments), % (fenofibrate 200 mg comicronized, one capsule daily, type 2 diabetes): 3.6% | Incident cases (first laser treatment for retinopathy post-randomisation), % (fenofibrate 200 mg daily): 2.3% | Prevalent cases (all reported laser treatments post-randomisation), % (fenofibrate 200 mg daily): 7.3%
